Assay results from US9283224B2, “Substituted pyrimidinyl-pyrroles active as kinase inhibitors” (NERVIANO MEDICAL SCIENCES S.R.L., priority 2012, dated 2016).
Read-outs that look alike come from different tables or passages of the source.

Legend:
[1] = system: JAK2 dependent human megakaryoblastic leukemia cell line SET-2; assay: Cell proliferation assay (CellTiter-Glo, 72 hours), SET-2; assay type: cell-based; details: for IC50: Homo sapiens, read-out: SET-2 IC50; for Ratio K-562 (IC50)/SET-2 (IC50): selectivity for JAK2 dependent SET-2 vs JAK2 independent K-562 cell line
Description: (§1) the JAK2 dependent human megakaryoblastic leukemia cell line SET-2 (DSMZ, Braunschweig GERMANY), and JAK2 independent human chronic myelogenous leukaemia cell line K562 (ECACC, Wiltshire, UK) were cultured in RPMI-1640 medium-Glutamax (Gibco BRL, Gaithesburg, Md., USA), supplemented with 10% fetal bovine serum (FBS) at 37° C. and 5% CO2.
(§2) Approximately 5×10^3 cells were plated into 384 microtiter plate wells in 50 μL of growth media with different concentrations of inhibitors. The cells were incubated at 37° C. and 5% CO2 for 72 hours, than the plates were processed using CellTiter-Glo assay (Promega, Madison, Wis., USA) following the manufacturer's instruction. Briefly 25 μL/well reagent solution are added to each wells and after 5 minutes shacking micro-plates are read by Envision luminometer (PerkinElmer, Waltham, Mass., USA).
(§3) Data are analyzed by Symix Assay Explorer software (Symix Technologies Inc.) that provides sigmoidal fitting algorithm of the 8 points dilutions curves for […] determination.

[2] = target: T1, JAK2 kinase domain (Homo sapiens, UniProt O60674); assay: Biochemical assay for inhibitors of JAK2 kinase activity (33P-γ-ATP, dowex resin); details: 1 nM enzyme, 60 μM ATP, 60 minutes at room temperature
T1 construct: commercially available JAK2 kinase domain (Invitrogen, Eugene, Oreg.); purchased Invitrogen, Eugene, Oreg
Description: Specific JAK2, JAK1 or JAK3 peptide substrates are trans-phosphorylated by JAK kinases in the presence of ATP traced with 33P-γ-ATP. At the end of the phosphorylation reaction, the unreacted ATP, cold and radioactive, is captured by an excess of dowex ion exchange resin that eventually settles by gravity to the bottom of the reaction plate. The supernatant is subsequently withdrawn and transferred into a counting plate that is then evaluated by β-counting.
500 g of wet resin (SIGMA, custom prepared resin DOWEX 1×8 200-400 mesh, 2.5 Kg) is weighed out and diluted 2 to 1 in 150 mM sodium formate, pH 3.00. The resin is allowed to settle overnight and then the supernatant is discarded. After three washes as above over a couple of days, the resin is allowed to settle and two volumes (with respect to the resin volume) of 150 mM sodium formate buffer are added.
Kinase buffer was composed of 50 mM HEPES pH 7.5 containing 10 mM MgCl2, 2.5 mM DTT, 10 μM Na3VO4 and 0.2 mg/mL BSA.
The peptidic substrate was purchased from American Peptide Company (Sunnyvale, Calif.).
An automated station for serial dilutions (Biomek FX, Beckman) is used for producing 1:3 dilutions in 100% DMSO, from line A1 to A10, and for all the compounds in the column.
At the start of the run, the robot aspirates 5 μL of ATP mix, makes an air gap inside the tips (3 μl) and aspirates 5 μL of JAK2 mix. The following dispensation into the plates plus 3 cycles of mixing, done by the robot itself, starts the kinase reaction. At this point, the correct concentrations are restored for all the reagents. The robot incubates the plates for 60 minutes at room temperature, and then stops the reaction by pipetting 60 μL of dowex resin suspension into the reaction mix. In order to avoid tip clogging, wide bore tips are used to dispense the resin suspension. Three cycles of mixing are done immediately after the addition of the resin. Another mixing cycle is performed after all the plates are stopped, this time using normal tips: the plates are then allowed to rest for about one hour in order to allow resin sedimentation. At this point, 27 μL of the supernatant are transferred into 384-Optiplates (Perkin-Elmer), with 50 μL of Microscint 40 (Perkin-Elmer); after 5 min of orbital shaking the plates are read on a Perkin-Elmer Top Count radioactivity counter.
Data are analyzed by an internally customized version of the SW package “Assay Explorer” that provides sigmoidal fitting of the ten-dilutions curves for IC50 determination in the secondary assays/hit confirmation routines.

[3] = system: JAK2 independent human chronic myelogenous leukaemia cell line K562; assay: Cell proliferation assay (CellTiter-Glo, 72 hours), K562; assay type: cell-based; details: K562 cells, read-out: K-562 IC50
Description: as §1, §2, §3

T1 sequence (O60674 849-1124 limits assumed): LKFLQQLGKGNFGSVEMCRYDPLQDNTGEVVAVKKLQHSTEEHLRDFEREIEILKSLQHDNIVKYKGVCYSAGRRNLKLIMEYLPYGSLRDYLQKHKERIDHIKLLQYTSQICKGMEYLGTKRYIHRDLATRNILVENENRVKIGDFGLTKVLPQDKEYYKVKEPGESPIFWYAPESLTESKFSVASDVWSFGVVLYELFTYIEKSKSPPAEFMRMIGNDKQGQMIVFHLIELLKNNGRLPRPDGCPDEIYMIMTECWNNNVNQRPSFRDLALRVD

SMILES	IC50 ([1]; SET-2 cells, 72 hours)	Ratio K-562 (IC50)/SET-2 (IC50) [1]	IC50 [2]	IC50 [3]	IC50 ([1]; SET-2, 72 h)
NC(=O)c1cc(-c2ccnc(N)n2)[nH]c1-c1cc(C(F)(F)F)ccc1Cl [Cmpd. 1, 5-(2-Aminopyrimidin-4-yl)-2-[2-chloro-5-(trifluoromethyl)phenyl]-1H-pyrrole-3-carboxamide]	570 nM	13	8 nM	7500 nM	
NC(=O)c1cc(-c2ccnc(N)n2)[nH]c1-c1cc(Cl)ccc1Cl [Cmpd. 2, 5-(2-Aminopyrimidin-4-yl)-2-(2,5-dichlorophenyl)-1H-pyrrole-3-carboxamide]	700 nM	9.8	12 nM	6860 nM	
CCc1ccc(Cl)cc1-c1[nH]c(-c2ccnc(N)n2)cc1C(N)=O [Cmpd. 5, 5-(2-Aminopyrimidin-4-yl)-2-(5-chloro-2-ethylphenyl)-1H-pyrrole-3-carboxamide]				5320 nM	210 nM
CCc1ccc(C(F)(F)F)cc1-c1[nH]c(-c2ccnc(N)n2)cc1C(N)=O [Cmpd. 16, 5-(2-Aminopyrimidin-4-yl)-2-[2-ethyl-5-(trifluoromethyl)phenyl]-1H-pyrrole-3-carboxamide]	390 nM	9.43	2 nM	3680 nM	
CCc1ccc(Cl)cc1-c1[nH]c(-c2ccnc(N)n2)cc1C(=O)NC [Cmpd. 35, 5-(2-Aminopyrimidin-4-yl)-2-(5-chloro-2-ethylphenyl)-N-methyl-1H-pyrrole-3-carboxamide]	490 nM	>20	9 nM	> 10000 nM	
CCNC(=O)c1cc(-c2ccnc(N)n2)[nH]c1-c1cc(Cl)ccc1CC [Cmpd. 36, 5-(2-Aminopyrimidin-4-yl)-2-(5-chloro-2-ethylphenyl)-N-ethyl-1H-pyrrole-3-carboxamide]	610 nM	>16	13 nM	> 10000 nM	
CNC(=O)c1cc(-c2ccnc(N)n2)[nH]c1-c1cc(C(F)(F)F)ccc1Cl [Cmpd. 39, 5-(2-Aminopyrimidin-4-yl)-2-[2-chloro-5-(trifluoromethyl)phenyl]-N-methyl-1H-pyrrole-3-carboxamide]	630 nM	>16		> 10000 nM	
CNc1nccc(-c2cc(C(N)=O)c(-c3cc(Cl)ccc3C)[nH]2)n1 [Cmpd. 42, 2-(5-Chloro-2-methylphenyl)-5-[2-(methylamino)pyrimidin-4-yl]-1H-pyrrole-3-carboxamide]				> 10000 nM	
CCc1ccc(C(F)(F)F)cc1-c1[nH]c(-c2ccnc(N)n2)cc1C(=O)NC [Cmpd. 51, 5-(2-Aminopyrimidin-4-yl)-2-[2-ethyl-5-(trifluoromethyl)phenyl]-N-methyl-1H-pyrrole-3-carboxamide]	310 nM	>20	2 nM	> 10000 nM	
Cc1ccc(Cl)cc1-c1[nH]c(-c2ccnc(N)n2)cc1C(N)=O [Ref. cmpd. (F25), 5-(2-amino-pyrimidin-4-yl)-2-(5-chloro-2-methyl-phenyl)-1H-pyrrole-3-carboxamide, reference compound]				2000 nM	430 nM
